Drawing on ChEMBL document CHEMBL3217442, “Synthesis and bioevaluation of aryl hydroxamates distinguishing between NAD+ and ATP-dependent DNA ligases” (Medchemcomm, 2012), this text covers MIC for 17 compounds.

Structures are written as SMILES. Converted amounts (≈) assume the structure as drawn. The source made the active and inactive calls. The calls are words filed in the database; no cut-off is given here.

For assay [1], the system named is Escherichia coli. In words: microbe, parasite or virus in culture. The format is functional. As to conditions: GR501, 20 h.
For assay [2], the system named is Escherichia coli.
The subject of assay [3] is Escherichia coli. In words: microbe, parasite or virus in culture. The assay is classed as functional. The settings on record: GR501, 20 h. The source holds these as a separate data set.

Regarding `C=CCOc1ccc(C(=O)NO)c(OCC=C)c1`, the MIC in assay [1] came to 400 µg/mL (≈ 1600 µM).
Consider `C=CCOc1c(OCc2ccccc2)cccc1C(=O)NO`, for which the MIC entry in assay [2] is “inactive”.
On to `C=CCOc1ccccc1C(=O)NO`, for which the MIC in assay [1] turned out to be 10 µg/mL (≈ 51.8 µM); in assay [3], 0.5 µg/mL (≈ 2.59 µM).
For the compound `O=C(NO)c1ccc2ccccc2c1OCc1cccc(Cl)c1`, the MIC result in assay [2] was “inactive”.
In assay [1], `C=CCOc1cc(OCc2ccc(Br)cc2)ccc1C(=O)NO` showed an MIC of 800 µg/mL (≈ 2120 µM).
The same measure, in the same setting: the value for `C#CCOc1ccc(OCC=C)c(C(=O)NO)c1` was 400 µg/mL (≈ 1620 µM).
Regarding `C=CCOc1cc(OCc2cc(Cl)ccc2Cl)ccc1C(=O)NO`, the MIC result in assay [2] was “inactive”.
In turn, `C=CCOc1ccc(OCc2cc(Cl)ccc2Cl)cc1C(=O)NO` gave an MIC in assay [1] of 400 µg/mL (≈ 1090 µM).
`O=C(NO)c1ccccc1OCc1cccc(Cl)c1`: the MIC entry in assay [2] is “inactive”.
For the compound `CCCCCCOc1c(C(=O)NO)ccc2ccccc12`, the MIC in assay [1] is greater than 200 µg/mL.
Compound `C=CCOc1ccc(OCc2ccc(Br)cc2)cc1C(=O)NO` had an MIC in assay [1] of 800 µg/mL (≈ 2120 µM).
For `C=CCOc1ccc(OCC=C)c(C(=O)NO)c1`, the MIC in assay [1] worked out at 150 µg/mL (≈ 602 µM).
Take `O=C(NO)c1ccccc1OCC(O)Cn1cc(-c2ccccc2)nn1` (centres undefined): the MIC in assay [1] is 18 µg/mL (≈ 50.8 µM); in assay [3], 1 µg/mL (≈ 2.82 µM).
Take `C=CCOc1ccc(OCc2ccccc2)cc1C(=O)NO`: the MIC in assay [1] was found to be 800 µg/mL (≈ 2670 µM).
On to `C=CCOc1cccc(C(=O)NO)c1OCC=C`, for which, in assay [2], the MIC result was “inactive”.
In turn, `O=C(NO)c1ccc2ccccc2c1OCc1ccc(Cl)c(Cl)c1` had an MIC in assay [1] greater than 200 µg/mL.
Regarding `O=C(NO)c1ccccc1OCc1ccc(Cl)c(Cl)c1`, the MIC result in assay [2] is “inactive”.
